In paper PMC5915149, “The role of oxidative stress in activity of anticancer thiosemicarbazones” (Oncotarget, 2018):
“Also recorded” adds a separate entry of the source. Where two headings read alike, the source gives them in different places.

Experiments:
HCT116 [1] = assay: MTS antiproliferative assay, HCT116 (with or without added metal ions); type: cell-based, human; conditions: for Selectivity index, calculated for HCT116: versus NHDF
Experimental: (§1) The cells were seeded in 96-well plates (Nunc) at a density of 3,500 cells/well (HCT116 and MCF-7) and 3,000 cells/well (NHDF) and incubated at 37° C for 24 h. The assay was performed following a 96 h incubation with varying concentrations of the compounds that were being tested. Then, 20 µL of CellTiter 96® AQueous One Solution-MTS (Promega) was added to each well (with 100 µL DMEM without phenol red) and incubated for 1 h at 37° C. The optical densities of the samples were analyzed at 490 nm using a multi-plate reader (Synergy 4, Bio Tek). Results were expressed as a percentage of the control and calculated as the inhibitory concentration (IC50) values (using GraphPad Prism 5). The IC50 parameter was defined as the compound concentration that was necessary to reduce the proliferation of cells to 50% of the untreated control. Each individual compound was tested in triplicate in a single experiment with each experiment being repeated three or four times.
(§2) The HCT116 and MCF-7 cells were seeded in 96-well plates (Nunc) at a density of 3,500 cells/well and incubated at 37° C for 24 h. The MTS assay was performed following a 96 h incubation with varying concentrations of the tested compounds. Additionally, a 20 µM solution of CuSO4, FeSO4 or FeCl3 was added into wells with the tested compounds. The results were expressed as a percentage of the control and calculated as the inhibitory concentration (IC50) values using GraphPad Prism 5. Each individual compound was tested in triplicate in a single experiment with each experiment being repeated three times.

MCF-7 = assay: MTS antiproliferative assay, MCF-7 (with or without added metal ions); type: cell-based, human; conditions: for improvement in cytotoxicity after interacting with Cu^2+: MCF-7 cells, 20 µM CuSO4; for Selectivity index, calculated for MCF-7: versus NHDF
Experimental: as §1, §2

MnSOD = assay: mRNA expression (Real-Time PCR) of MnSOD; type: cell-based, human; conditions: HCT116, TSC 1 µM, 12 or 24 h
Experimental: (§3) The HCT116 cells were seeded in 3 cm Petri dishes (Nunc) at a density of 0.5·10^6 cells/well and incubated overnight. Next, the medium was removed and solutions of TSC (1 μM) and DOX (5 μM) were added. After 12 or 24 h, total RNA was isolated from the cells using TRIzol Reagent (Ambion) according to the manufacturer’s instructions. cDNA synthesis was performed with 5 μg of total RNA using a GoScript™ Reverse Transcriptase kit (Promega) and Oligo(dT)23 Primers (Sigma). The Real-Time PCR was performed with a CTX96 Touch™ Real-Time PCR Detection System (Biorad) in a 20 μL reaction volume. The reaction consisted of PowerUp™ SYBR® Green Master Mix (Applied Biosystems), a primer pair mix (0.5 μM each) and 1 μL of cDNA. All primer pair sequences were purchased from Sigma-Aldrich and are listed in Supplementary Table 2. The experiment was performed under the following conditions: initial denaturation at 95° C for 120 sec; followed by 40 denaturation cycles at 95° C, 15 sec; annealing (primer-specific temperature for 30 sec) and extension at 72° C for 60 sec. Data was analyzed based on a comparison of the expression of the target genes to a reference gene – β-actin, using the 2^–ΔΔCT method. The experiments were performed at least three times.

calf-thymus DNA (CT-DNA) = assay: Intercalation, absorption spectra with CT-DNA; type: binding; conditions: for % hypochromism / Changes in absorbance / Δε: bound to CT-DNA; for blue/red shift: wavelengths of maximum absorption, compound alone vs DNA-bound
Experimental: For the DNA binding studies, Calf-thymus DNA (CT-DNA) was purchased from Sigma Aldrich. The lyophilized CT-DNA was dissolved in 10 mM Tris-HCl, pH 7.9, mixed gently and left overnight at 4° C. The purity of the CT-DNA solution was determined by measuring the ratio of UV absorbance at 260 and 280 nm. […] Then, the concentration of CT-DNA was determined from the absorbance at 260 nm using an extinction coefficient of 6600 M^–1cm^–1. The tested TSC and DOX were dissolved in DMSO to a concentration of 8.35 mM, which was then used as the stock solution for preparing the various concentrations (25, 12.5, 6 and 3 µM) in 1 mL in 10 mM of Tris-HCl (pH 7.9). Afterwards, 18 µM CT-DNA was added to the prepared solutions, which were incubated for 1.5 h at 37° C with occasional vortexing. The absorption spectra were measured using a Hitachi U-2900 spectrophotometer in range of 200–500 nm. All absorption spectra were imported and compared in OriginPro 8.0.

HCT116 [2] = tested on: HCT116; set-up: method as in PMID 25329549; conditions: 96 h incubation, MTS; cited from earlier work
NHDF [3] = tested on: NHDF; set-up: method as in PMID 25329549; conditions: 96 h incubation, MTS; cited from earlier work
NHDF [4] = assay: MTS cytotoxicity assay, normal fibroblasts; type: cell-based, human; conditions: Homo sapiens, NHDF, 96 h incubation
Experimental: as §1

p21 = assay: Western blot of p21; type: cell-based, human; conditions: HCT116, 1 µM
Experimental: (§4) The HCT116 cells were seeded in 3 cm Petri dishes (Nunc) at a density of 0.5·10^6 cells/well and incubated overnight. The next day, solutions of TSC (1 μM) and DOX (5 μM) were added and the cells incubated for 24 or 48 h. Cells were harvested by trypsinization and washed with cold PBS. Next, the cells were centrifuged and suspended in an RIPA buffer (Thermo Scientific) containing Halt Protease Inhibitor Cocktail (Thermo Scientific), Halt Phosphatase Inhibitor Cocktail (Thermo Scientific) along with 0.5 M EDTA and lysed for 20 min on ice. Then, the lysates were sonicated, centrifuged at 10,000 rpm for 10 min at 4° C and the supernatants were collected for further analysis. The protein concentration was determined using a Micro BCA™ Protein Assay Kit (Thermo Scientific) according to the manufacturer’s instructions. Equal amounts of the proteins (20 μg) were electrophoresed on SDS-Page gels and transferred onto a nitrocellulose membranes. The membranes were blocked in 5% non-fat milk prepared in PBS containing 0.1% Tween-20 (TPBS) for 1 h. After blocking, the membranes were incubated with specific primary antibodies: cdc2 (#POH1, Cell Signaling), p21^Waf1/Cip1 (#12D1, Cell Signaling), p53 (#1C12, Cell Signaling) and β-Actin (#8H10D10, Cell Signaling) overnight at 4° C, then washed and incubated with horseradish peroxidase (HRP)-conjugated secondary antibodies for 1h at room temperature. All of antibodies were diluted 1:1000 in 5% milk in TPBS. Finally, the membranes were washed and incubated with a SuperSignal™ West Pico Chemiluminescent Substrate (Thermo Scientific). The chemiluminescence signals were captured using a ChemiDoc™ XRS+ System (BioRad). The experiments were performed at least three times. Densitometric analysis was performed using ImageJ 1.41 software (Wayne Rasband, National Institutes of Health, USA).

cdc2 = assay: Western blot of cdc2; type: cell-based, human; conditions: HCT116, 1 µM
Experimental: as §4

HCT116 cells = assay: Cell cycle assay (Muse Cell-Cycle Kit); type: cell-based, human; conditions: HCT116, TSC 1 µM, 48 h
Experimental: The HCT116 cells were seeded in 3 cm Petri dishes (Nunc) at a density of 0.25·10^6 cells/well and incubated at 37° C for 24 h. […] After a 48 h treatment, assays were performed using a Muse Cell-Cycle Kit (Millipore) according to the manufacturer’s instructions. Briefly, cells were collected, washed with cold PBS and centrifuged at 300 g. Then, the cells were fixed in ice cold 70% ethanol and stored at –20° C overnight. Afterwards, the cells were centrifuged and resuspended in 200 μL of Muse™ Cell Cycle Reagent and incubated for 30 min at room temperature in the dark. After staining, the cells were processed for cell cycle analysis using a Muse Cell Analyzer (Millipore). The experiments were performed at least three times.

CAT = assay: mRNA expression (Real-Time PCR) of CAT; type: cell-based, human; conditions: HCT116, TSC 1 µM, after the first 12 h
Experimental: as §3

Ndrg1 = assay: mRNA expression (Real-Time PCR) of Ndrg1; type: cell-based, human; conditions: HCT116, TSC 1 µM, 24 h
Experimental: as §3

[5] = 96 h, 20 µM CuSO4 added, read-out: Activity - IC50 HCT116+ Cu^2+
[6] = 96 h, 20 µM FeCl3 added, read-out: Activity - IC50 HCT116+ Fe^3+
[7] = 96 h, 20 µM CuSO4 added, read-out: Activity - IC50 MCF-7+ Cu^2+
[8] = 96 h, 20 µM FeCl3 added, read-out: Activity - IC50 MCF-7+ Fe^3+
[9] = 96 h incubation, MTS, read-out: Activity - IC50 MCF-7
[10] = Homo sapiens, HCT-116, 96 h, 20 µM CuSO4 added, read-out: Activity - IC50 HCT116+ Cu^2+
[11] = Homo sapiens, HCT-116, 96 h, 20 µM FeCl3 added, read-out: Activity - IC50 HCT116+ Fe^3+
[12] = Homo sapiens, MCF7, 96 h, 20 µM CuSO4 added, read-out: Activity - IC50 MCF-7+ Cu^2+
[13] = Homo sapiens, MCF7, 96 h, 20 µM FeCl3 added, read-out: Activity - IC50 MCF-7+ Fe^3+
[14] = Homo sapiens, MCF7, 96 h incubation, MTS, read-out: Activity - IC50 MCF-7

IC50 (HCT116 [1]; [5]) | IC50 (HCT116 [1]; [6]) | IC50 (MCF-7; [7]) | IC50 (MCF-7; [8]) | IC50 (MCF-7; [9]) | IC50 (HCT116 [1]; [10]) | IC50 (HCT116 [1]; [11]) | IC50 (MCF-7; [12]) | IC50 (MCF-7; [13]) | Compound | mRNA expression of MnSOD (MnSOD) | % hypochromism (calf-thymus DNA (CT-DNA)) | Changes in absorbance (calf-thymus DNA (CT-DNA)) | Δε (calf-thymus DNA (CT-DNA)) | blue/red shift (calf-thymus DNA (CT-DNA)) | IC50 (HCT116 [2]) | IC50 (NHDF [3]) | Selectivity index, calculated for HCT116 (HCT116 [1]) | expression of p21 protein (densitometric analysis) (p21) | expression of cdc2 protein (densitometric analysis) (cdc2) | cells in S phase (HCT116 cells) | other results
59.6 ± 6.45 nM | 96.9 ± 16.9 nM | 44.9 ± 3.77 nM | 273 ± 35.6 nM | 219 ± 15.1 nM | – | – | – | – | S=C(NN=Cc1ccc2ccccc2n1)N1CCN(c2cnccn2)CC1 [Compound 1a] | after the initial decline (for 12 h) there is a small increase | 22.0% | hypochromism | 3175.6 M⁻¹ cm⁻¹ | 1 nm | 87.7 ± 43.9 nM | 9440 nM | – | – | – | – | –
– | – | – | – | – | 19.7 ± 0.53 nM | 72.4 ± 12.9 nM | 3.78 ± 0.88 nM | 25 ± 2.16 nM | Fc1ccc(N2CCN(C(=S)NN=Cc3ccc4ccccc4n3)CC2)cc1 [Compound 1b, 4-(4-fluorophenyl)-N’-[(quinolin-2-yl)methylidene]piperazine-1-carbothiohydrazide] | large drop | 24.2% | hypochromism | 2313.3 M⁻¹ cm⁻¹ | 10 nm | – | – | 1.8 | increased p21 level, but in a lesser degree | lowest values; also recorded: strongest decreasing effect | – | IC50 (HCT116 [1]; Homo sapiens, HCT-116, 96 h incubation, MTS, read-out: Activity - IC50 HCT116): 62.2 ± 8.95 nM; IC50 (MCF-7; [14]): 31.4 ± 3.38 nM; improvement in cytotoxicity after interacting with Cu^2+ (MCF-7): eight-fold; Selectivity index, calculated for MCF-7 (MCF-7): 3.6; IC50 (NHDF [4]): 114 ± 10.3 nM
1.39 ± 0.44 nM | 7.57 ± 1.19 nM | 2.39 ± 0.42 nM | 8.83 ± 1.29 nM | 10.9 ± 2.85 nM | – | – | – | – | Oc1cccc2ccc(C=NNC(=S)N3CCOCC3)nc12 [Compound 2a] | slight increase | 15.7% | hypochromism | 1935.6 M⁻¹ cm⁻¹ | 10 nm | 3.84 ± 1.46 nM | 10600 nM | – | – | – | 33–35% | –
4.17 ± 1.12 nM | 78.2 ± 14 nM | 5.49 ± 1.19 nM | 35.8 ± 5.82 nM | 32.2 ± 6.85 nM | – | – | – | – | Oc1cccc2ccc(C=NNC(=S)N3CCN(c4cnccn4)CC3)nc12 [Compound 2b] | – | 9.4% | hypochromism | 1888.9 M⁻¹ cm⁻¹ | 5 nm | 50.5 ± 28.1 nM | 12100 nM | – | – | increased the expression | 33–35% | improvement in cytotoxicity after interacting with Cu^2+ (HCT116 [1]; HCT116 cells, 20 µM CuSO4): more than a ten-fold increase; mRNA expression of CAT (CAT): higher; mRNA expression of Ndrg1 (Ndrg1): strongest
1.56 ± 0.44 nM | 9.94 ± 2.69 nM | 0.54 ± 0.15 nM | 5.35 ± 0.66 nM | 4.1 ± 0.93 nM | – | – | – | – | S=C(NN=C(c1ccccn1)c1ccccn1)N1CCN(c2ccccn2)CC1 [Compound 3b] | large drop | 31.9% | hypochromism | 6133.3 M⁻¹ cm⁻¹ | 5 nm | 2.06 ± 0.88 nM | 160 ± 40 nM | – | increased p21 level, but in a lesser degree | strongest decreasing effect | – | improvement in cytotoxicity after interacting with Cu^2+ (MCF-7): eight-fold; mRNA expression of CAT (CAT): higher; mRNA expression of Ndrg1 (Ndrg1): strongest; cells in G0/G1 phase (HCT116 cells; untreated 72%): 39%
– | – | – | – | – | 0.31 ± 0.06 nM | 1.77 ± 0.36 nM | 0.13 ± 0.04 nM | 0.96 ± 0.32 nM | CN(C)C(=S)NN=C(c1ccccn1)c1ccccn1 [Dp44mT, di-2-pyridylketone 4,4-dimethyl-3-thiosemicarbazone, reference compound] | – | 8.2% | hypochromism | 1673.3 M⁻¹ cm⁻¹ | 2 nm | 1.4 ± 0.13 nM | 15400 nM | 10985.7 | marked up-regulation | lowest values | 41% | IC50 (MCF-7; [14]): 0.38 ± 0.15 nM; Selectivity index, calculated for MCF-7 (MCF-7): 40473.7; ability to intercalate DNA (calf-thymus DNA (CT-DNA); CT-DNA, absorption spectra): very weak
